Experimental data published in patent publication US10159685B2, “Vascular calcification” (Cambridge Enterprise Limited, priority 2016, dated 2018).
Like-named read-outs stand apart in the source and are kept apart here. Marks after values point to notes of the source that are not given here.

Columns and labels:
Format in all cases: cell-based
[1] = tested on: bovine vascular smooth muscle cells (bVSMCs); conditions: 7 days; for Cell viability of bVSMCs after seven days (MTT signal, relative to control): mean of three experiments; for Toxicity to bVSMCs (MTT assay, in words): at the concentrations tested (0.5 to 100 μM)
Method: The toxicity of the identified compounds to bovine VSMCs was measured using the MTT assay, which measures the activity of dehydrogenase enzymes of live cells. This assay can pick up both cell death and proliferation.
Bovine VSMCs were seeded in 96 well plates and cultured in M199/20% FCS for 1 day. Then, the cells were incubated with inhibitor concentrations from 0.5 to 100 μM (in M199 medium+5% FBS). The cells were incubated with the inhibitors for 7 days; every 2-3 days the medium −/+inhibitors was exchanged. Then, the MTT assay was performed. The stock vehicle DMSO was tested at corresponding concentrations to the inhibitors at 0.1% DMSO or less.

[2] = tested on: human monocyte-macrophages (HMMs); assay: MTT toxicity assay, HMMs, seven days (Example 3); conditions: 7 days; for Cell viability by MTT, percent of control: mean of three experiments; for Toxicity to HMMs (in words): at a concentration of 100 μM
Method: A similar set of toxicity experiments was performed with human monocyte-macrophages (HMMs).

[3] = tested on: bovine vascular smooth muscle cells (bVSMCs); assay: o-Cresolphthalein Ca2+ assay, bVSMC GAD calcification model (Examples 4 and 5); conditions: GAD-treated bVSMCs, 10 μM, 7 d
Method: For the bVSMCs a GAD medium (10 mM β-glycerophosphate/0.1 mM L-ascorbic acid-2-phosphate/10 nM dexamethasone) model was used to induce mineralization in bVSMCs. Accordingly, cells were seeded in tissue culture plates using M199/20% FCS culture medium and cultured overnight. The next day, cells were treated either with medium only (M199/5% FBS)+/−inhibitors, or with the GAD-medium (10 mM β-glycerophosphate/0.1 mM L-ascorbic acid-2-phosphate/[…] dexamethasone)+/−inhibitors.
Medium+/−inhibitors was exchanged every 2-3 days. […]
The o-Cresolphthalein assay is a spectrophotometric method for measuring Ca^2+-concentrations in cell/tissue lysates. Following the calcification experiments, cells are briefly washed to remove medium and 100 […]1 of 0.1 N HCl is added to each well to dissolve any mineral deposits. Then, the Ca^2+-concentration of the samples is measured spectrophotometrically (at 570 nm) in the o-cresolphthalein assay with the help of a CaCl2 standard curve in a concentration range of ˜0.02-270 µg Ca^2+/ml.
The commercial BioRad DC protein assay is based on the Lowry method, aka reaction of proteins with a copper-tartrate complex and subsequent reaction with Folin's reagent. Following the calcification experiment, cells are briefly washed to remove medium and 100 µl of solubilisation solution (0.1 M NaOH/1% SDS/DIW) is added to each well to lyse the cells. The protein concentrations of the lysates are subsequently determined in the BioRad DC assay as per supplier's instructions using BSA (bovine serum albumin) as standard.
The in vitro model is the same as the model used in example 4; bovine vascular smooth muscle cells (bVSMCs) cultured so that they produce extracellular matrix, with the addition of the GAD medium (10 mM β-glycerophosphate/0.1 mM L-ascorbic acid-2-phosphate/10 nM dexamethasone).
As above, cells were treated either with medium only (“no-additions”; NA)+/−inhibitors, or with the GAD-medium+/−inhibitors. The inhibitors used were PJ34 and minocyclin (MC) at 10 μM, 1 μM and 0.1 μM.
The methodology was the same as that described in example 4.

[4] = tested on: human vascular smooth muscle cells (hVSMCs); assay: o-Cresolphthalein Ca2+ assay, hVSMC Ca/P calcification model (Examples 7-9); conditions: for Inhibition of calcification, normalised results (FIG. 27) / Normalised calcium levels (mass of calcium per mass of protein, FIG. 22): hVSMCs, 8 days; for Inhibition of calcification, normalised results (FIG. 27): concentrations between 0.05 μM and 3 μM; for Extracellular matrix calcification (summary statement): bovine cell and human cell in vitro vascular calcification model; for Normalised calcium levels (mass of calcium per mass of protein, FIG. 22): 3 μM
Method: (§1) Primary hVSMCs were cultured in M199 media containing FBS (M199/5% FBS). They were plated at a known cell density, allowed to grow for 24 hours and then treated with control (DMSO only) or calcification media (DMSO containing 2.7 mM Calcium+2.5 mM phosphate)+/−inhibitors. After 6 days, calcification was assessed using the o-Cresolphthalein assay for quantification of Ca^2+ deposition and a BioRad protein assay for protein content.
Medium+/−inhibitors was exchanged every 2-3 days.
as §1, with “8” for “6”, “using” for “using the”
All of the compounds tested were used at a concentration of 3 μM. Medium+/−inhibitors was exchanged every 2-3 days.
as §1, with “phosphate)+/−compounds.” for “phosphate)+/−inhibitors.”, “8” for “6”, “using” for “using the”
These concentrations were chosen to mimic the systemic concentrations of these drugs following patient dosing according to the dose schedule in the prescribing information for each drug. Medium+/−inhibitors was exchanged every 2-3 days.

| Structure (SMILES) | Cell viability of bVSMCs after seven days (MTT signal, relative to control) ([1]; 0.5 uM) | Cell viability of bVSMCs after seven days (MTT signal, relative to control) ([1]; 1 uM) | Cell viability of bVSMCs after seven days (MTT signal, relative to control) ([1]; 2 uM) | Cell viability of bVSMCs after seven days (MTT signal, relative to control) ([1]; 5 uM) | Cell viability of bVSMCs after seven days (MTT signal, relative to control) ([1]; 10 uM) | Cell viability of bVSMCs after seven days (MTT signal, relative to control) ([1]; 20 uM) | Cell viability of bVSMCs after seven days (MTT signal, relative to control) ([1]; 50 uM) | Cell viability of bVSMCs after seven days (MTT signal, relative to control) ([1]; 100 uM) | Toxicity to bVSMCs (MTT assay, in words) [1] | Cell viability by MTT, percent of control ([2]; 0.5 uM) | Cell viability by MTT, percent of control ([2]; 1 uM) | Cell viability by MTT, percent of control ([2]; 2 uM) | Cell viability by MTT, percent of control ([2]; 5 uM) | Cell viability by MTT, percent of control ([2]; 10 uM) | Cell viability by MTT, percent of control ([2]; 20 uM) | Cell viability by MTT, percent of control ([2]; 50 uM) | Cell viability by MTT, percent of control ([2]; 100 uM) | Toxicity to HMMs (in words) [2] | Inhibition of calcification, normalised results (FIG. 27) [4] | Extracellular matrix calcification (summary statement) [4] | other results |
| --- | --- | --- | --- | --- | --- | --- | --- | --- | --- | --- | --- | --- | --- | --- | --- | --- | --- | --- | --- | --- | --- |
| O=C1NCCc2c(OCCCCN3CCCCC3)cccc21 [DPQ, 3,4-dihydro-5-[4-(1-piperidinyl)butoxyl]-1(2H)-isoquinolinone] | 100.30 | 101.78 | 92.11* | 94.96 | 92.58* | 94.24* | 89.46* | 89.87* | virtually non-toxic | 106.61 | 88.68 | 89.59 | 95.11 | 91.82 | 91.99 | 86.74 | 90.94 | relatively innocuous | – | – | – |
| COc1ccc([C@@H]2Sc3ccccc3N(CCN(C)C)C(=O)[C@@H]2OC(C)=O)cc1 [Diltiazem, diltiazem] | 98.78 | 96.07 | 89.48* | 91.88* | 94.54 | 113.60* | 143.28* | 119.64* | non-toxic | 97.10 | 104.94 | 99.61 | 91.09 | 92.45 | 100.42 | 92.16 | 53.65* | most toxic | – | – | Stimulatory effect on bVSMCs (MTT assay) ([1]; at 20 μM and above): stimulatory effect; Calcium levels (mass of calcium, FIG. 7B) compared to no inhibitors [3]: lower calcium levels; Normalised calcium levels (mass of calcium per mass of protein, FIG. 9B) [3]: slightly lower calcium levels |
| CC(=O)CCCCn1c(=O)c2c(ncn2C)n(C)c1=O [Pentoxifylline, pentoxifylline] | 97.68 | 95.91 | 92.19* | 91.33* | 91.77* | 92.43* | 93.01* | 96.96 | virtually non-toxic | 98.73 | 90.57 | 91.92 | 107.27 | 88.35 | 93.54 | 89.28 | 89.64 | relatively innocuous | do not inhibit calcification | – | Calcium levels (mass of calcium, FIG. 7B) compared to no inhibitors [3]: no effect; Normalised calcium levels (mass of calcium per mass of protein, FIG. 9B) [3]: slightly lower calcium levels |
| CC(C)c1c(C(=O)Nc2ccccc2)c(-c2ccccc2)c(-c2ccc(F)cc2)n1CC[C@@H](O)C[C@@H](O)CC(=O)O [atorvastatin] | – | – | – | – | – | – | – | – | – | – | – | – | – | – | – | – | – | – | do not inhibit medial vascular calcification | – | – |
| COc1ccccc1Oc1c(NS(=O)(=O)c2ccc(C(C)(C)C)cc2)nc(-c2ncccn2)nc1OCCO [bosentan MH, Bosentan monohydrate] | 101.97 | 96.12 | 91.91* | 93.05* | 93.87* | 97.20 | 103.69 | 85.05* | little toxicity | 91.59 | 99.82 | 97.16 | 84.90 | 79.36 | 83.25 | 73.65 | 64.97* | most toxic | do not inhibit calcification | – | Calcium levels (mass of calcium, FIG. 7B) compared to no inhibitors [3]: no effect; Normalised calcium levels (mass of calcium per mass of protein, FIG. 9B) [3]: slightly lower calcium levels |
| CCCCc1nc(Cl)c(CO)n1Cc1ccc(-c2ccccc2-c2nn[nH]n2)cc1 [losartan] | – | – | – | – | – | – | – | – | – | – | – | – | – | – | – | – | – | – | do not inhibit medial vascular calcification | – | – |
| NC(=O)c1cccc2cn(-c3ccc([C@@H]4CCCNC4)cc3)nc12 [niraparib] | – | – | – | – | – | – | – | – | – | – | – | – | – | – | – | – | – | – | – | significantly reduce extracellular matrix calcification | Normalised calcium levels (mass of calcium per mass of protein, FIG. 22) [4]: particularly effective |
| O=C(c1cc(Cc2n[nH]c(=O)c3ccccc23)ccc1F)N1CCN(C(=O)C2CC2)CC1 [olaparib] | – | – | – | – | – | – | – | – | – | – | – | – | – | – | – | – | – | – | – | significantly reduce extracellular matrix calcification | – |
| CNCc1ccc(-c2[nH]c3cc(F)cc4c3c2CCNC4=O)cc1 [rucaparib] | – | – | – | – | – | – | – | – | – | – | – | – | – | – | – | – | – | – | – | significantly reduce extracellular matrix calcification | Normalised calcium levels (mass of calcium per mass of protein, FIG. 22) [4]: particularly effective |
| Cn1ncnc1[C@H]1c2n[nH]c(=O)c3cc(F)cc(c23)N[C@@H]1c1ccc(F)cc1 [talazoparib] | – | – | – | – | – | – | – | – | – | – | – | – | – | – | – | – | – | – | – | significantly reduce extracellular matrix calcification | – |
| C[C@]1(c2nc3c(C(N)=O)cccc3[nH]2)CCCN1 [veliparib] | – | – | – | – | – | – | – | – | – | – | – | – | – | – | – | – | – | – | inhibit calcification significantly and repeatedly | significantly reduce extracellular matrix calcification | Normalised calcium levels (mass of calcium per mass of protein, FIG. 22) [4]: particularly effective |
